Source: PMC9025941, “Influence of the Type of Amino Acid on the Permeability and Properties of Ibuprofenates of Isopropyl Amino Acid Esters” (International Journal of Molecular Sciences, 2022)
Where “and” joins values, the source holds several entries; their conditions need not be identical. Equal entries are not always repeated. Where two headings read alike, the source gives them in different places. Marks after values point to notes of the source that are not given here.

Tests used:
[1] = Thermal stability (TG/DTG): decomposition onset and maximum mass-loss rate temperature
Experimental: In Figure 5, the thermal stability of ibuprofen and amino acid isopropyl ester ibuprofenates was determined and compared. All TG, DTG, and c-DTA curves are in the Supplementary Materials (Figures S87–S100). The decomposition onset temperature (Tonset) and the temperature of the maximum rate of mass loss (Tmax) were determined.

[2] = 24 h penetration, n = 3
[3] = In vitro skin permeation, Franz diffusion cells; details: for Q%24 h, the percentage of the applied dose permeated after 24 h / Cumulative Permeation Mass / LT, lag time: n = 3; for Q%24 h, the percentage of the applied dose permeated after 24 h / Cumulative Permeation Mass: 24 h; for EF, enhancement factor: relative to IBU; for JSS, steady-state flux: saturated solution in PBS pH 7.4, n = 3
[4] = n-octanol-water partition coefficient, shake flask method; details: shake flask, 25 °C
[5] = Solubility in organic solvents by modified Vogel's method; details: 25 °C
[6] = Solubility (saturation concentration) in deionised water and PBS pH 7.4, HPLC; details: for Solubility in Phosphate Buffer pH = 7.4: PBS pH 7.4, 32 °C; for Solubility in Water: 25 °C
[7] = saturated solution in PBS pH 7.4, mass of compound
[8] = saturated solution in PBS pH 7.4, mass of ibuprofen

Structure (SMILES) | Tonset, the onset temperature of the thermal degradation [1] | Q%24 h, the percentage of the applied dose permeated after 24 h [3] | Cumulative Permeation Mass [3, 7] | Cumulative Permeation Mass [3, 8] | LT, lag time [3] | EF, enhancement factor [3] | JSS, steady-state flux [3] | Log P (n-octanol-water partition coefficient) [4] | Solubility in DMSO [5] | Solubility in chloroform [5] | Solubility in dichloromethane [5] | Solubility in diethyl ether [5] | Solubility in ethanol [5] | Solubility in ethyl acetate [5] | Solubility in n-hexane [5] | Solubility in toluene [5] | Solubility in Phosphate Buffer pH = 7.4 ([6]; g of active compound (IBU)) | Solubility in Phosphate Buffer pH = 7.4 ([6]; g of compound) | Solubility in Water ([6]; g of active compound (IBU)) | Solubility in Water ([6]; g of compound) | other results
CC(C)Cc1ccc(C(C)C(=O)O)cc1.CC(C)OC(=O)[C@@H](N)[C@@H](C)O [[L-ThrOiPr][IBU], L-threonine isopropyl ester ibuprofenate] | 129.6 °C | 11.294 ± 0.505% | 714.248 ± 38.838 ^b µg·cm^−2 | 400.942 ± 17.921 ^b µg IBU·cm^−2 | 1.339 ± 0.177 h | 1.52 | 59.631 ± 6.900 µg IBU cm^−2 h^−1 | 0.998 ± 0.001 | – | – | – | – | – | – | – | – | – | – | – | – | Accumulation in the skin [2]: 621.866 ± 112.163 µg IBU g^−1
CC(C)Cc1ccc(C(C)C(=O)O)cc1.CC(C)OC(=O)[C@H](C)N [[L-AlaOiPr][IBU], L-alanine isopropyl ester ibuprofenate] | 78.3 °C | 6.786 ± 0.214% | 572.719 ± 18.05 ^b µg·cm^−2 | 350.100 ± 11.039 ^b µg IBU·cm^−2 | 1.691 ± 0.041 h | 0.92 | 44.510 ± 0.861 µg IBU cm^−2 h^−1 | 0.719 ± 0.004 | + (soluble >100 mg cm^−3) | + (soluble >100 mg cm^−3) | + (soluble >100 mg cm^−3) | +/− (partially soluble 33–100 mg cm^−3) | + (soluble >100 mg cm^−3) | + (soluble >100 mg cm^−3) | − (insoluble <33 mg cm^−3) | + (soluble >100 mg cm^−3) | 5.159 ± 0.015 g IBU∙dm^−3 | 8.440 ± 0.024 g∙dm^−3 | 2.463 ± 0.008 g IBU∙dm^−3 | 4.030 ± 0.014 g∙dm^−3 | –
CC(C)Cc1ccc(C(C)C(=O)O)cc1.CC(C)OC(=O)[C@@H](N)CO [[L-SerOiPr][IBU], L-serine isopropyl ester ibuprofenate] | – | 11.035 ± 0.500% | – | – | 1.160 ± 0.081 h | 1.49 | 66.106 µg IBU cm^−2 h^−1 and 66.106 ± 2.925 µg IBU cm^−2 h^−1 | 0.775 ± 0.008 | – | – | – | – | – | +/− (partially soluble 33–100 mg cm^−3) | – | − (insoluble <33 mg cm^−3) | – | – | – | – | Tonset, the onset temperature of the thermal degradation ([1]; TG): 139.2 °C; Accumulation in the skin [2]: 407.652 ± 74.170 µg IBU g^−1
CC(C)Cc1ccc(C(C)C(=O)O)cc1.CC(C)OC(=O)[C@@H](N)Cc1ccccc1 [[L-PheOiPr][IBU], L-phenylalanine isopropyl ester ibuprofenate] | 175.8 °C | 35.912 ± 0.539% | 711.866 ± 5.956 ^b µg·cm^−2 | 355.088 ± 5.482 ^b µg IBU·cm^−2 | 1.368 ± 0.091 h | 4.85 | 48.578 ± 4.836 µg IBU cm^−2 h^−1 | 2.207 ± 0.026 | + (soluble >100 mg cm^−3) | + (soluble >100 mg cm^−3) | + (soluble >100 mg cm^−3) | +/− (partially soluble 33–100 mg cm^−3) | + (soluble >100 mg cm^−3) | + (soluble >100 mg cm^−3) | − (insoluble <33 mg cm^−3) | + (soluble >100 mg cm^−3) | 1.017 ± 0.001 g IBU∙dm^−3 | 2.039 ± 0.001 g∙dm^−3 | 0.297 ± 0.024 g IBU∙dm^−3 | 0.595 ± 0.048 g∙dm^−3 | KP, times higher than for ibuprofen [3]: 6.839 times
CC(C)Cc1ccc(C(C)C(=O)O)cc1.CC(C)Cc1ccc(C(C)C(=O)O)cc1.CC(C)OC(=O)[C@@H](N)CCCCN [[L-LysOiPr][IBU]2, L-lysine isopropyl ester bis(ibuprofenate)] | – | 10.624 ± 0.474% | 640.825 ± 28.577 ^b µg·cm^−2 | 220.016 ± 9.811 ^b µg IBU·cm^−2 | 1.333 ± 0.258 h | 1.43 | 24.852 ± 2.857 µg IBU cm^−2 h^−1 | – | + (soluble >100 mg cm^−3) | − (insoluble <33 mg cm^−3) | − (insoluble <33 mg cm^−3) | − (insoluble <33 mg cm^−3) | + (soluble >100 mg cm^−3) | − (insoluble <33 mg cm^−3) | − (insoluble <33 mg cm^−3) | − (insoluble <33 mg cm^−3) | 2.071 ± 0.118 g IBU∙dm^−3 | 6.032 ± 0.342 g∙dm^−3 | 2.012 ± 0.110 g IBU∙dm^−3 | 5.861 ± 0.322 g∙dm^−3 | Tonset, the onset temperature of the thermal degradation ([1]; TG): 183.7 °C; Accumulation in the skin [2]: 392.593 ± 111.434 µg IBU g^−1
CC(C)Cc1ccc(C(C)C(=O)O)cc1.CC(C)OC(=O)[C@@H](N)CCCCN [[L-LysOiPr][IBU], L-lysine isopropyl ester ibuprofenate] | – | 11.062 ± 0.475% | 1011.106 ± 43.448 ^b µg·cm^−2 | 528.643 ± 22.716 µg IBU·cm^−2 and 528.643 ± 22.716 ^b µg IBU·cm^−2 | 1.423 ± 0.130 h | 1.49 | 56.801 ± 4.129 µg IBU cm^−2 h^−1 | – | + (soluble >100 mg cm^−3) | − (insoluble <33 mg cm^−3) | − (insoluble <33 mg cm^−3) | − (insoluble <33 mg cm^−3) | + (soluble >100 mg cm^−3) | − (insoluble <33 mg cm^−3) | − (insoluble <33 mg cm^−3) | − (insoluble <33 mg cm^−3) | 4.779 ± 0.061 g IBU∙dm^−3 | 9.140 ± 0.117 g∙dm^−3 | 5.047 ± 0.060 g IBU∙dm^−3 | 9.6534 ± 0.115 g∙dm^−3 | Tonset, the onset temperature of the thermal degradation ([1]; TG): 177.9 °C
CC(C)C[C@H](N)C(=O)OC(C)C.CC(C)Cc1ccc(C(C)C(=O)O)cc1 [[L-LeuOiPr][IBU], L-leucine isopropyl ester ibuprofenate] | 109.5 °C | 11.077 ± 0.236% | 424.683 ± 9.060 ^b µg·cm^−2 | 230.824 ± 4.924 ^b µg IBU·cm^−2 | 1.742 ± 0.061 h | 1.50 | 38.502 ± 1.553 µg IBU cm^−2 h^−1 | 1.391 ± 0.001 | + (soluble >100 mg cm^−3) | + (soluble >100 mg cm^−3) | + (soluble >100 mg cm^−3) | +/− (partially soluble 33–100 mg cm^−3) | + (soluble >100 mg cm^−3) | + (soluble >100 mg cm^−3) | − (insoluble <33 mg cm^−3) | + (soluble >100 mg cm^−3) | 2.084 ± 0.002 g IBU∙dm^−3 | 3.834 ± 0.003 g∙dm^−3 | 0.682 ± 0.038 g IBU∙dm^−3 | 1.255 ± 0.070 g∙dm^−3 | –
CC(C)Cc1ccc(C(C)C(=O)O)cc1.CC(C)OC(=O)[C@@H](N)CS [[L-CysOiPr][IBU], L-cysteine isopropyl ester ibuprofenate] | 190.2 °C | 12.210 ± 1.119% | 541.776 ± 49.664 ^b µg·cm^−2 | 305.756 ± 28.028 ^b µg IBU·cm^−2 | 1.873 ± 0.104 h | 1.65 | 28.858 ± 2.984 µg IBU cm^−2 h^−1 | 1.430 ± 0.005 | + (soluble >100 mg cm^−3) | + (soluble >100 mg cm^−3) | + (soluble >100 mg cm^−3) | – | + (soluble >100 mg cm^−3) | +/− (partially soluble 33–100 mg cm^−3) | − (insoluble <33 mg cm^−3) | – | 2.440 ± 0.287 g IBU∙dm^−3 | 4.437 ± 0.287 g∙dm^−3 | 1.143 ± 0.253 g IBU∙dm^−3 | 2.048 ± 0.253 g∙dm^−3 | –
